# Tested on: 377384-186-R-J1-PDC complex spheroid viability
# Test: Anticancer human tumor 377384-186-R-J1-PDC patient-derived pancreatic carcinoma cell line growth inhibition [RAS]
# Settings: for IC50: curve of first compound; for viability, T/C: stronger effect = lower value
# Procedure, shortened: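 Tumour cells grown as complex spheroids with HUVEC endothelial cells and mesenchymal stem cells, treated with RAS pathway inhibitor combinations. Each agent spans half-log steps from near clinical Cmax, or 10 microM where Cmax is unknown.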
# [1] = second compound 0.000949 µM, first compound 0.0316 µM
# [2] = second compound 0.000949 µM, first compound 0.1 µM
# [3] = second compound 0.000949 µM, first compound 0.316 µM
# [4] = second compound 0.000949 µM, first compound 1 µM
# [5] = second compound 0.000949 µM, first compound 3.16 µM
# [6] = second compound 0.000949 µM, first compound 10 µM
# [7] = second compound 0.003 µM, first compound 0.0316 µM
# [8] = second compound 0.003 µM, first compound 0.1 µM
# [9] = second compound 0.003 µM, first compound 0.316 µM
# [10] = second compound 0.003 µM, first compound 1 µM
# [11] = second compound 0.003 µM, first compound 3.16 µM
# [12] = second compound 0.003 µM, first compound 10 µM
# [13] = second compound 0.00949 µM, first compound 0.0316 µM
# [14] = second compound 0.00949 µM, first compound 0.1 µM
# [15] = second compound 0.00949 µM, first compound 0.316 µM
# [16] = second compound 0.00949 µM, first compound 1 µM
# [17] = second compound 0.00949 µM, first compound 3.16 µM
# [18] = second compound 0.00949 µM, first compound 10 µM
# [19] = second compound 0.03 µM, first compound 0.0316 µM
# [20] = second compound 0.03 µM, first compound 0.1 µM
# [21] = second compound 0.03 µM, first compound 0.316 µM
# [22] = second compound 0.03 µM, first compound 1 µM
# [23] = second compound 0.03 µM, first compound 3.16 µM
# [24] = second compound 0.03 µM, first compound 10 µM
# [25] = second compound 0.0949 µM, first compound 0.0316 µM
# [26] = second compound 0.0949 µM, first compound 0.1 µM
# [27] = second compound 0.0949 µM, first compound 0.316 µM
# [28] = second compound 0.0949 µM, first compound 1 µM
# [29] = second compound 0.0949 µM, first compound 3.16 µM
# [30] = second compound 0.0949 µM, first compound 10 µM
# [31] = second compound 0.3 µM, first compound 0.0316 µM
# [32] = second compound 0.3 µM, first compound 0.1 µM
# [33] = second compound 0.3 µM, first compound 0.316 µM
# [34] = second compound 0.3 µM, first compound 1 µM
# [35] = second compound 0.3 µM, first compound 3.16 µM
# [36] = second compound 0.3 µM, first compound 10 µM
# 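Also: spheroids exposed to compounds for seven days before readout.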
structure (smiles),measurement,setting,value
CC1(O)CCCC1n1c(=O)c(C(F)F)cc2cnc(NC3CCN(S(C)(=O)=O)CC3)nc21 (stereo not drawn) + CCn1c(-c2cccnc2C(C)OC)c2c3cc(ccc31)N1CCOC(CC(NC(=O)C(C(C)C)N(C)C(=O)C3(F)CCN(C(=O)C#CC(C)(C)N(C)C)CC3)C(=O)N3CCCC(N3)C(=O)OCC(C)(C)C2)C1,IC50,second compound 0.000949 µM,91.3 nM
same,IC50,second compound 0.003 µM,105 nM
same,IC50,second compound 0.00949 µM,122 nM
same,IC50,second compound 0.03 µM,111 nM
same,IC50,second compound 0.0949 µM,78.5 nM
same,IC50,second compound 0.3 µM,62.8 nM
same,"viability, T/C",[1],79.6%
same,"viability, T/C",[2],46.6%
same,"viability, T/C",[3],28.9%
same,"viability, T/C",[4],28.6%
same,"viability, T/C",[5],35.1%
same,"viability, T/C",[6],9.26%
same,"viability, T/C",[7],76.8%
same,"viability, T/C",[8],52.7%
same,"viability, T/C",[9],28.8%
same,"viability, T/C",[10],26.6%
same,"viability, T/C",[11],34.8%
same,"viability, T/C",[12],8.79%
same,"viability, T/C",[13],84.6%
same,"viability, T/C",[14],55.6%
same,"viability, T/C",[15],27%
same,"viability, T/C",[16],29.7%
same,"viability, T/C",[17],36%
same,"viability, T/C",[18],7.91%
same,"viability, T/C",[19],67.4%
same,"viability, T/C",[20],52.6%
same,"viability, T/C",[21],24.9%
same,"viability, T/C",[22],21.5%
same,"viability, T/C",[23],34.7%
same,"viability, T/C",[24],7.53%
same,"viability, T/C",[25],71.3%
same,"viability, T/C",[26],46.5%
same,"viability, T/C",[27],23.9%
same,"viability, T/C",[28],22.2%
same,"viability, T/C",[29],33.4%
same,"viability, T/C",[30],6.19%
same,"viability, T/C",[31],68%
same,"viability, T/C",[32],37.7%
same,"viability, T/C",[33],18.6%
same,"viability, T/C",[34],22.7%
same,"viability, T/C",[35],34.7%
same,"viability, T/C",[36],5.35%
CCC(CC)c1cc(NC2CCC(N)C2)n2nccc2n1 (stereo not drawn) + CCn1c(-c2cccnc2C(C)OC)c2c3cc(ccc31)N1CCOC(CC(NC(=O)C(C(C)C)N(C)C(=O)C3(F)CCN(C(=O)C#CC(C)(C)N(C)C)CC3)C(=O)N3CCCC(N3)C(=O)OCC(C)(C)C2)C1,IC50,second compound 0.000949 µM,1720 nM
same,IC50,second compound 0.003 µM,1580 nM
same,IC50,second compound 0.00949 µM,1600 nM
same,IC50,second compound 0.03 µM,1540 nM
same,IC50,second compound 0.0949 µM,1230 nM
same,IC50,second compound 0.3 µM,851 nM
same,"viability, T/C",[1],101%
same,"viability, T/C",[2],96.9%
same,"viability, T/C",[3],115%
same,"viability, T/C",[4],91.9%
same,"viability, T/C",[5],2.57%
same,"viability, T/C",[6],3.88%
same,"viability, T/C",[7],109%
same,"viability, T/C",[8],115%
same,"viability, T/C",[9],108%
same,"viability, T/C",[10],81%
same,"viability, T/C",[11],2.93%
same,"viability, T/C",[12],3.96%
same,"viability, T/C",[13],90.4%
same,"viability, T/C",[14],114%
same,"viability, T/C",[15],120%
same,"viability, T/C",[16],82.3%
same,"viability, T/C",[17],3.02%
same,"viability, T/C",[18],4.29%
same,"viability, T/C",[19],104%
same,"viability, T/C",[20],99%
same,"viability, T/C",[21],107%
same,"viability, T/C",[22],77.6%
same,"viability, T/C",[23],3.09%
same,"viability, T/C",[24],4.72%
same,"viability, T/C",[25],90.8%
same,"viability, T/C",[26],91.5%
same,"viability, T/C",[27],95.8%
same,"viability, T/C",[28],60.1%
same,"viability, T/C",[29],3.31%
same,"viability, T/C",[30],4.2%
same,"viability, T/C",[31],94%
same,"viability, T/C",[32],86.1%
same,"viability, T/C",[33],86.3%
same,"viability, T/C",[34],44.2%
same,"viability, T/C",[35],3.73%
same,"viability, T/C",[36],3.93%
Cc1nc(N2CCC3(CC2)COC(C)C3N)c(CO)nc1Sc1ccnc(N)c1Cl (stereo not drawn) + CCn1c(-c2cccnc2C(C)OC)c2c3cc(ccc31)N1CCOC(CC(NC(=O)C(C(C)C)N(C)C(=O)C3(F)CCN(C(=O)C#CC(C)(C)N(C)C)CC3)C(=O)N3CCCC(N3)C(=O)OCC(C)(C)C2)C1,IC50,second compound 0.000949 µM,> 10000 nM
same,IC50,second compound 0.003 µM,> 10000 nM
same,IC50,second compound 0.00949 µM,> 10000 nM
same,IC50,second compound 0.03 µM,> 10000 nM
same,IC50,second compound 0.0949 µM,> 10000 nM
same,IC50,second compound 0.3 µM,> 10000 nM
same,"viability, T/C",[1],91.7%
same,"viability, T/C",[2],84.8%
same,"viability, T/C",[3],78.1%
same,"viability, T/C",[4],83.8%
same,"viability, T/C",[5],79.5%
same,"viability, T/C",[6],78.4%
same,"viability, T/C",[7],95%
same,"viability, T/C",[8],97.7%
same,"viability, T/C",[9],95%
same,"viability, T/C",[10],84.7%
same,"viability, T/C",[11],87.7%
same,"viability, T/C",[12],72.6%
same,"viability, T/C",[13],103%
same,"viability, T/C",[14],74.7%
same,"viability, T/C",[15],74.8%
same,"viability, T/C",[16],75%
same,"viability, T/C",[17],90%
same,"viability, T/C",[18],79%
same,"viability, T/C",[19],86.2%
same,"viability, T/C",[20],87.3%
same,"viability, T/C",[21],91%
same,"viability, T/C",[22],79%
same,"viability, T/C",[23],74.4%
same,"viability, T/C",[24],69%
same,"viability, T/C",[25],82.3%
same,"viability, T/C",[26],84.8%
same,"viability, T/C",[27],70.1%
same,"viability, T/C",[28],63.3%
same,"viability, T/C",[29],77.9%
same,"viability, T/C",[30],71.6%
same,"viability, T/C",[31],77.2%
same,"viability, T/C",[32],72%
same,"viability, T/C",[33],71%
same,"viability, T/C",[34],70.9%
same,"viability, T/C",[35],66.8%
same,"viability, T/C",[36],61%
NC1c2ccccc2OC12CCN(c1cnc3c(N4CCCc5ncccc54)n[nH]c3n1)CC2 (stereo not drawn) + CCn1c(-c2cccnc2C(C)OC)c2c3cc(ccc31)N1CCOC(CC(NC(=O)C(C(C)C)N(C)C(=O)C3(F)CCN(C(=O)C#CC(C)(C)N(C)C)CC3)C(=O)N3CCCC(N3)C(=O)OCC(C)(C)C2)C1,IC50,second compound 0.000949 µM,> 10000 nM
same,IC50,second compound 0.003 µM,> 10000 nM
same,IC50,second compound 0.00949 µM,> 10000 nM
same,IC50,second compound 0.03 µM,> 10000 nM
same,IC50,second compound 0.0949 µM,> 10000 nM
same,IC50,second compound 0.3 µM,> 10000 nM
same,"viability, T/C",[1],106%
same,"viability, T/C",[2],97.5%
same,"viability, T/C",[3],88.2%
same,"viability, T/C",[4],82.3%
same,"viability, T/C",[5],84.3%
same,"viability, T/C",[6],84.3%
same,"viability, T/C",[7],98.8%
same,"viability, T/C",[8],86.1%
same,"viability, T/C",[9],82.2%
same,"viability, T/C",[10],79.9%
same,"viability, T/C",[11],93.3%
same,"viability, T/C",[12],67.4%
same,"viability, T/C",[13],97.3%
same,"viability, T/C",[14],84.3%
same,"viability, T/C",[15],84.5%
same,"viability, T/C",[16],73.8%
same,"viability, T/C",[17],89.8%
same,"viability, T/C",[18],76.1%
same,"viability, T/C",[19],102%
same,"viability, T/C",[20],84.4%
same,"viability, T/C",[21],70.6%
same,"viability, T/C",[22],86%
same,"viability, T/C",[23],79.2%
same,"viability, T/C",[24],68.1%
same,"viability, T/C",[25],75.6%
same,"viability, T/C",[26],82.6%
same,"viability, T/C",[27],81%
same,"viability, T/C",[28],69.3%
same,"viability, T/C",[29],74%
same,"viability, T/C",[30],71.9%
same,"viability, T/C",[31],67.6%
same,"viability, T/C",[32],60.1%
same,"viability, T/C",[33],59.4%
same,"viability, T/C",[34],63.1%
same,"viability, T/C",[35],70.9%
same,"viability, T/C",[36],59.9%

# Source: PubChem BioAssay AID2060903 (Molecular Pharmacology Branch, DTP, NCI, 2025)
